Data as given in the NIST ThermoML archive (doi:10.1021/je400512u).

Experiment: xn = mol fraction of the nth substance listed
Conditions: 101 kPa, Liquid; for viscosity: Concentric cylinders viscometry; for speed of sound: Pulse-echo method; for mass density: Vibrating tube method

CCCCCCCO [heptan-1-ol] + C1COCCO1
Conditions	mass density, 313.15 K [kg/m3]	mass density, 318.15 K [kg/m3]	mass density, 323.15 K [kg/m3]	speed of sound, 313.15 K [m/s]	speed of sound, 318.15 K [m/s]	speed of sound, 323.15 K [m/s]	viscosity, 313.15 K [mPa·s]	viscosity, 318.15 K [mPa·s]	viscosity, 323.15 K [mPa·s]
x1 = 0.0505	992.162	986.663	981.158	1275.6	1254.7	1233.5	0.957	0.888	0.827
x1 = 0.1	975.379	970.046	964.707	1270.9	1250.5	1230.6	0.976	0.905	0.842
x1 = 0.1501	960.33	955.144	949.953	1267.6	1247.5	1228.1	1.009	0.934	0.867
x1 = 0.2	946.025	940.982	935.93	1264.9	1245.2	1226.2	1.041	0.964	0.893
x1 = 0.25	932.425	927.545	922.628	1262.8	1243.5	1224.8	1.088	1.003	0.928
x1 = 0.2997	920.079	915.295	910.503	1261.3	1242.4	1224	1.143	1.052	0.971
x1 = 0.3502	908.677	904.009	899.329	1260.6	1242	1223.9	1.209	1.109	1.021
x1 = 0.4001	898.054	893.497	888.925	1260	1241.6	1223.7	1.278	1.168	1.073
x1 = 0.4498	888.028	883.572	879.103	1259.9	1241.7	1224.1	1.361	1.241	1.136
x1 = 0.4998	878.663	874.304	869.929	1260.3	1242.3	1224.9	1.463	1.33	1.213
x1 = 0.55	870.001	865.728	861.446	1260.7	1243	1225.7	1.568	1.419	1.29
x1 = 0.6004	861.838	857.642	853.441	1262.1	1244.1	1227	1.691	1.526	1.383
x1 = 0.6501	854.006	849.902	845.785	1262.9	1245.5	1228.6	1.83	1.645	1.486
x1 = 0.7002	846.648	842.622	838.579	1264.3	1247	1230.3	1.991	1.783	1.604
x1 = 0.7493	839.512	835.561	831.593	1266	1248.9	1232.4	2.165	1.93	1.73
x1 = 0.7999	832.79	828.821	824.83	1267.4	1250.6	1234.3	2.38	2.114	1.883
x1 = 0.85	826.48	822.668	818.738	1270.6	1253.3	1236.9	2.62	2.313	2.053
x1 = 0.8998	820.289	816.551	812.671	1272.2	1255.8	1239.1	2.913	2.557	2.258
x1 = 0.9498	814.421	810.743	807.031	1274.6	1258.4	1241.8	3.25	2.835	2.489
x1 = 1	809.011	805.383	801.731	1277.7	1261.1	1245.1	3.677	3.186	2.777
